This assay concerns the target Heat shock protein HSP 90-beta (Homo sapiens, UniProt P08238). The assay can be described thus: Binding affinity to human recombinant HSP90.
Sequence of Heat shock protein HSP 90-beta (P08238 whole entry): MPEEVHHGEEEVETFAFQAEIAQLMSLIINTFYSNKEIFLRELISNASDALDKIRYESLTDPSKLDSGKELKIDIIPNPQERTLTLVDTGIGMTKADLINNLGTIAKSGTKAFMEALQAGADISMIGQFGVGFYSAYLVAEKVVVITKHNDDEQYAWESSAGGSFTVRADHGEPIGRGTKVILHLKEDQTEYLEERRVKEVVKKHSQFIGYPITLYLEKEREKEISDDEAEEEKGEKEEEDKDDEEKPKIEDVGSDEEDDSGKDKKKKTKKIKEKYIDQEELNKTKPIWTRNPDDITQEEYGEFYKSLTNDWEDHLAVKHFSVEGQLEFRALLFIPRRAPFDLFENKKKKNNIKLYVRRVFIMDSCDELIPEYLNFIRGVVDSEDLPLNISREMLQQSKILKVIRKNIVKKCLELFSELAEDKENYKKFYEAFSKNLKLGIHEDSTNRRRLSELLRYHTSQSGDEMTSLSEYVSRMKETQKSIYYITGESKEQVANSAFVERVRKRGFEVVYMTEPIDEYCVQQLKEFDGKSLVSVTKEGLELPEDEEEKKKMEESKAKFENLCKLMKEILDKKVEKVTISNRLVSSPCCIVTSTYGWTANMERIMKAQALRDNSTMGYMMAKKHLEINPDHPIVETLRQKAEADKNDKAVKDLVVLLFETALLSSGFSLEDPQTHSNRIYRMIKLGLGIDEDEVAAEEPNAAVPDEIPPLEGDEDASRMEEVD
With `CO[C@H]1C[C@H](C)Cc2c(O)c(cc(O)c2N=CCN(C)C)NC(=O)C(C)=CC=C[C@H](OC)[C@@H](OC(N)=O)/C(C)=C/[C@H](C)/C1=N\OCc1ccccc1`, the Kd was greater than 100 µM.
Next, `C=CC=Nc1c(O)cc2c(O)c1C[C@@H](C)C[C@H](OC)C(N=O)[C@@H](C)C=C(C)[C@H](OC(N)=O)[C@@H](OC)C=CC=C(C)C(=O)N2` (stereo partly drawn) [(8S,9S,12S,13E,14S,16R)-19-(allylamino)-13-(hydroxyimino)-8,14-dimethoxy-4,10,12,16-tetramethyl-3,20,22-trioxo-2-azabicyclo[16.3.1]docosa-1(21),4,6,10,18-pentaen-9-yl carbamate]: greater than 10 µM; `CO[C@H]1C=CC=C(C)C(=O)Nc2cc(O)c(N=CCN(C)C)c(c2O)C[C@@H](C)C[C@H](OC)[C@H](NCC(F)F)[C@@H](C)/C=C(\C)[C@@H]1OC(N)=O` [(8S,9S,12S,13R,14S,16R)-13-(2,2-difluoroethylamino)-19-(2-(dimethylamino)ethylamino)-8,14-dimethoxy-4,10,12,16-tetramethyl-3,20,22-trioxo-2-azabicyclo[16.3.1]docosa-1(21),4,6,10,18-pentaen-9-yl carbamate]: 2.9 µM.
As for `CO[C@H]1C=CC=C(C)C(=O)Nc2cc(O)c(N=CCN(C)C)c(c2O)C[C@@H](C)C[C@H](OC)[C@H](NCCN(C)C)[C@@H](C)/C=C(\C)[C@@H]1OC(N)=O` [(8S,9S,12S,13R,14S,16R)-13,19-bis(2-(dimethylamino)ethylamino)-8,14-dimethoxy-4,10,12,16-tetramethyl-3,20,22-trioxo-2-azabicyclo[16.3.1]docosa-1(21),4,6,10,18-pentaen-9-yl carbamate], the Kd was greater than 50 µM.
Next, `CO[C@H]1[C@@H](OC)C[C@H](C)Cc2c(O)c(cc(O)c2N=CCN2CCCC2)NC(=O)C(C)=CC=C[C@H](OC)[C@@H](OC(N)=O)/C(C)=C/[C@@H]1C` [(8S,9S,12S,13R,14S,16R)-8,13,14-trimethoxy-4,10,12,16-tetramethyl-3,20,22-trioxo-19-(2-(pyrrolidin-1-yl)ethylamino)-2-azabicyclo[16.3.1]docosa-1(21),4,6,10,18-pentaen-9-yl carbamate]: 1 µM; `C=CCO/N=C1/[C@@H](OC)C[C@H](C)Cc2c(O)c(cc(O)c2N=CCN(C)C)NC(=O)C(C)=CC=C[C@H](OC)[C@@H](OC(N)=O)/C(C)=C/[C@@H]1C` [(8S,9S,12S,14S,16R)-13-(allyloxyimino)-19-(2-(dimethylamino)ethylamino)-8,14-dimethoxy-4,10,12,16-tetramethyl-3,20,22-trioxo-2-azabicyclo[16.3.1]docosa-1(21),4,6,10,18-pentaen-9-yl carbamate]: greater than 100 µM; `CO[C@H]1C=CC=C(C)C(=O)Nc2cc(O)c(N=CCN3CCC3)c(c2O)C[C@@H](C)C[C@H](OC)[C@H](O)[C@@H](C)/C=C(\C)[C@@H]1OC(N)=O` [(8S,9S,12S,13R,14S,16R)-19-(2-(azetidin-1-yl)ethylamino)-13-hydroxy-8,14-dimethoxy-4,10,12,16-tetramethyl-3,20,22-trioxo-2-azabicyclo[16.3.1]docosa-1(21),4,6,10,18-pentaen-9-yl carbamate]: 0.4 µM.
As for `CO[C@H]1[C@@H](OC)CC(C)=Cc2c(O)c(cc(O)c2N2CCC2)NC(=O)C(C)=CC=C[C@H](OC)[C@@H](OC(N)=O)/C(C)=C/[C@@H]1C` [(8S,9S,12S,13R,14S,16R)-19-(azetidin-1-yl)-8,13,14-trimethoxy-4,10,12,16-tetramethyl-3,20,22-trioxo-2-azabicyclo[16.3.1]docosa-1(21),4,6,10,18-pentaen-9-yl carbamate], the figure is 4 µM; as for `CO[C@H]1C=CC=C(C)C(=O)Nc2cc(O)c(N=CCN3CCCC3)c(c2O)C[C@@H](C)C[C@H](OC)[C@H](O)[C@@H](C)/C=C(\C)[C@@H]1OC(N)=O` [(8S,9S,12S,13R,14S,16R)-13-hydroxy-8,14-dimethoxy-4,10,12,16-tetramethyl-3,20,22-trioxo-19-(2-(pyrrolidin-1-yl)ethylamino)-2-azabicyclo[16.3.1]docosa-1(21),4,6,10,18-pentaen-9-yl carbamate], 0.4 µM; as for `CO[C@H]1C[C@H](C)Cc2c(O)c(cc(O)c2N=CCN(C)C)NC(=O)C(C)=CC=C[C@H](OC)[C@@H](OC(N)=O)C(C)=C[C@H](C)C1N=O` (stereo partly drawn) [(8S,9S,12S,14S,16R)-19-(2-(dimethylamino)ethylamino)-13-(hydroxyimino)-8,14-dimethoxy-4,10,12,16-tetramethyl-3,20,22-trioxo-2-azabicyclo[16.3.1]docosa-1(21),4,6,10,18-pentaen-9-yl carbamate], greater than 10 µM.
Regarding `CO/N=C1/[C@@H](OC)C[C@H](C)Cc2c(O)c(cc(O)c2N=CCN(C)C)NC(=O)C(C)=CC=C[C@H](OC)[C@@H](OC(N)=O)/C(C)=C/[C@@H]1C` [(8S,9S,12S,14S,16R)-19-(2-(dimethylamino)ethylamino)-8,14-dimethoxy-13-(methoxyimino)-4,10,12,16-tetramethyl-3,20,22-trioxo-2-azabicyclo[16.3.1]docosa-1(21),4,6,10,18-pentaen-9-yl carbamate], the dissociation constant (Kd) was greater than 100 µM.
In the case of `CO[C@H]1C[C@H](C)Cc2c(O)c(cc(O)c2N=CCN(C)C)NC(=O)C(C)=CC=C[C@H](OC)[C@@H](OC(N)=O)/C(C)=C/[C@H](C)/C1=N\OCCN(C)C` [(8S,9S,12S,14S,16R)-13-(2-(dimethylamino)ethoxyimino)-19-(2-(dimethylamino)ethylamino)-8,14-dimethoxy-4,10,12,16-tetramethyl-3,20,22-trioxo-2-azabicyclo[16.3.1]docosa-1(21),4,6,10,18-pentaen-9-yl carbamate], the Kd was greater than 100 µM.
Consider `CO[C@H]1C[C@H](C)Cc2c(O)c(cc(O)c2N=CCN(C)C)NC(=O)C(C)=CC=C[C@H](OC)[C@@H](OC(N)=O)/C(C)=C/[C@H](C)/C1=N\OCC(=O)O` [2-(((8S,9S,12S,14S,16R)-9-(carbamoyloxy)-19-(2-(dimethylamino)ethylamino)-8,14-dimethoxy-4,10,12,16-tetramethyl-3,20,22-trioxo-2-azabicyclo[16.3.1]docosa-1(21),4,6,10,18-pentaen-13-ylidene)aminooxy)acetic acid], for which the Kd is greater than 25 µM.
For `CO[C@H]1[C@@H](OC)C[C@H](C)Cc2c(O)c(cc(O)c2N=CCN2CCC2)NC(=O)C(C)=CC=C[C@H](OC)[C@@H](OC(N)=O)/C(C)=C/[C@@H]1C` [(8S,9S,12S,13R,14S,16R)-19-(2-(azetidin-1-yl)ethylamino)-8,13,14-trimethoxy-4,10,12,16-tetramethyl-3,20,22-trioxo-2-azabicyclo[16.3.1]docosa-1(21),4,6,10,18-pentaen-9-yl carbamate], the dissociation constant (Kd) was 1 µM.
With `CO[C@H]1C=CC=C(C)C(=O)Nc2cc(O)c(N=CCF)c(c2O)C[C@@H](C)C[C@H](OC)[C@H](O)[C@@H](C)/C=C(\C)[C@@H]1OC(N)=O` [Carbamic acid (4E,6Z,10E)-(8S,9S,12S,13R,14S,16R)-19-(2-fluoro-ethylamino)-13-hydroxy-8,14-dimethoxy-4,10,12,16-tetramethyl-3,20,22-trioxo-2-aza-bicyclo[16.3.1]docosa-1(21),4,6,10,18-pentaen-9-yl ester], the Kd turned out to be 0.8 µM.
On to `CO[C@H]1C=CC=C(C)C(=O)Nc2cc(O)c(N=CCN(C)C)c(c2O)C[C@@H](C)C[C@H](OC)[C@H](NCCF)[C@@H](C)/C=C(\C)[C@@H]1OC(N)=O`, for which the Kd was greater than 50 µM.
Regarding `CO[C@H]1C=CC=C(C)C(=O)Nc2cc(O)c(N=CCF)c(c2O)C[C@@H](C)C[C@H](OC)[C@H](OC(=O)CN)[C@@H](C)/C=C(\C)[C@@H]1OC(N)=O` [(8S,9S,12S,13R,14S,16R)-9-(carbamoyloxy)-19-(2-fluoroethylamino)-8,14-dimethoxy-4,10,12,16-tetramethyl-3,20,22-trioxo-2-azabicyclo[16.3.1]docosa-1(21),4,6,10,18-pentaen-13-yl 2-aminoacetate], the Kd was greater than 25 µM.
Consider `CO[C@H]1C[C@H](C)Cc2c(O)c(cc(O)c2N=CCF)NC(=O)C(C)=CC=C[C@H](OC)[C@@H](OC(N)=O)C(C)=C[C@H](C)C1N=O` (stereo partly drawn) [(8S,9S,12S,13E,14S,16R)-19-(2-fluoroethylamino)-13-(hydroxyimino)-8,14-dimethoxy-4,10,12,16-tetramethyl-3,20,22-trioxo-2-azabicyclo[16.3.1]docosa-1(21),4,6,10,18-pentaen-9-yl carbamate], for which the Kd is greater than 25 µM.
Consider `CNCC=Nc1c(O)cc2c(O)c1C[C@@H](C)C[C@H](OC)[C@H](OC(=O)CN)[C@@H](C)/C=C(\C)[C@H](OC(N)=O)[C@@H](OC)C=CC=C(C)C(=O)N2` [(8S,9S,12S,13R,14S,16R)-9-(carbamoyloxy)-8,14-dimethoxy-4,10,12,16-tetramethyl-19-(2-(methylamino)ethylamino)-3,20,22-trioxo-2-azabicyclo[16.3.1]docosa-1(21),4,6,10,18-pentaen-13-yl 2-aminoacetate], for which the Kd was greater than 25 µM.
On to `CO[C@H]1[C@@H](OC)C[C@H](C)Cc2c(O)c(cc(O)c2N=CCN(C)C)NC(=O)C(C)=CC=C[C@H](OC)[C@@H](OC(N)=O)/C(C)=C/[C@@H]1C` [11-O-Methyl-17-[2-(dimethylamino)ethyl]amino-17-demethoxygeldanamycin], for which the Kd stood at 0.8 µM.
Consider `C=CCO[C@H]1[C@@H](OC)CC(C)=Cc2c(O)c(cc(O)c2N2CCC2)NC(=O)C(C)=CC=C[C@H](OC)[C@@H](OC(N)=O)/C(C)=C/[C@@H]1C` [11-O-Allyl-17-(1-azetidinyl)-17-demethoxygeldanamycin], for which the equilibrium dissociation constant (Kd) came to 2.9 µM.
Next, `CO[C@H]1C=CC=C(C)C(=O)Nc2cc(O)c(N=CCN(C)C)c(c2O)C[C@@H](C)C[C@H](OC)[C@H](N)[C@@H](C)/C=C(\C)[C@@H]1OC(N)=O`: greater than 25 µM.
Turning to `C=CC=Nc1c(O)cc2c(O)c1C[C@@H](C)C[C@H](OC)[C@H](OC(=O)CN)[C@@H](C)/C=C(\C)[C@H](OC(N)=O)[C@@H](OC)C=CC=C(C)C(=O)N2` [(8S,9S,12S,13R,14S,16R)-19-(allylamino)-9-(carbamoyloxy)-8,14-dimethoxy-4,10,12,16-tetramethyl-3,20,22-trioxo-2-azabicyclo[16.3.1]docosa-1(21),4,6,10,18-pentaen-13-yl 2-aminoacetate], the Kd is greater than 25 µM.
